Patent publication US9012492B2, “Apocynin-lipoic acid conjugates and uses thereof” (priority 2011, dated 2015)

Experiments:
Sprague-Dawley rats = assay: Infarct volume after transient middle cerebral artery occlusion, ischemia/reperfusion (I/R); type: in vivo, rat
Procedure: Sprague-Dawley rats were used to study the effects of (Ia) on reperfusion injury following stroke in a rodent model. The rats were anesthetized, and injected with (la) (0.01-0.1 mg/kg). After 30 minutes, occlusion of the middle cerebral artery (MCA) was performed.
The detailed methodology for permanent middle cerebral artery occlusion (MCAO) and transient (I/R) occlusion of the middle cerebral artery has been published previously.^46 Briefly, animals were placed in a David Kopf stereotaxic frame (Tujunga, Calif.), and the right middle cerebral artery (MCA) approached through a rostral-caudal incision of the skin and frontalis muscle at the approximate level of bregma. Blood flow through the MCA was impeded by the placement of surgical suture behind the MCA at three designated positions along the exposed vessel. The sutures were positioned so that the middle of each suture applied pressure to the underside of the MCA and impeded blood flow as confirmed using laser Doppler flowmetry (OxyFlo, Oxford-Optronix, Oxford, UK; Ref. 46). This three-point placement of surgical sutures produced a highly reproducible and consistent focal ischemic lesion (permanent ischemia) restricted to the prefrontal cerebral cortex. For transient I/R, the sutures were left in place for 30 min and then removed (reperfusion) to allow blood flow to return to the area for an additional 5.5 h (209 rats received I/R). In 12 rats, sutures were left in place for 6 h as a model of permanent ischemia.
To examine the effect of the compound of Formula (Ia) on I/R-induced cell death, injections of the compound of Formula (Ia) (0.01, 0.05, 0.1, or 0.5 mg/kg; 1 ml/kg iv; n=4 per group) or vehicle (25% EtOH; 1 ml/kg iv; n=6) were made 30 min prior to the onset of MCAO. The sutures were left in place for 30 min and removed. Reperfusion was allowed for 5.5 h, and the experiment was terminated.
To determine whether the compound of Formula (Ia) was neuroprotective when administered during the 30-min period of occlusion, injections of the compound of Formula (Ia) at a dose that produced optimal neuroprotection based on the dose-response-curve described above (0.1 mg/kg; 1 ml/kg iv; n=4) or vehicle (25% EtOH; 1 mi/kg iv; n=4) were made 15 min following the onset of MCAO. After a further 15 min, the sutures were removed to allow for an additional 5.5 h of reperfusion.
To examine the effect of the compound of Formula (Ia) on reperfusion injury alone, injections of the optimal dose of the compound of Formula (Ia) (0.1 mg/kg; 1 ml/kg iv; n=4 per group) or vehicle (1 ml/kg iv; n=4 or 5 per group) were made following 30 min of MCAO, immediately prior to the removal of the sutures, or 30, 60, 90, 120, or 180 min following suture removal (start of reperfusion). In all cases, the experiments were terminated following 5.5 h of reperfusion.
To determine whether the compound of Formula (Ia) required bioactivation and/or metabolism to an active intermediate to produce neuroprotection, the effect of direct intracortical injections of the compound of Formula (Ia) on infarct volume were investigated in the present model of transient occlusion (I/R). The compound of Formula (Ia) (0.01, 0.1, 0.5, or 1.0 μM in 200 n1; n=4 per group) or the same volume of vehicle (0.0125% EtOH; 200 n1; n=6) was injected into the ipsilateral hemisphere (bregma—0.3 mm, lateral—5.5 mm and depth of—3.0 mm from the dorsal surface of the brain)^47 10 min prior to suture placement followed by 30 min of MCAO and 5.5 h of reperfusion.
To examine the effect of the compound of Formula (Ia) on the change in infarct volume over the 5.5 h of reperfusion, injections of the optimal dose of the compound of Formula (Ia) (0.1 mg/kg; 1 ml/kg iv; n=4 per group) or vehicle (25% EtOH; 1 ml/kg iv; n=4) were made 30 min prior to the onset of MCAO. The sutures were left in place for 30 min. […]

[1] = tested on: human liver microsomes (HLM); assay: Metabolic stability using human liver microsomes; type: in vitro ADME
Text: Table 9 summarizes the experimental conditions used in the studies of the metabolic stability of the compound of Formula (Ia) using dog liver microsomes and human liver microsomes.

Q: With `COc1cc(C(C)=O)ccc1OC(=O)CCCCC1CCSS1` (stereo not drawn) [compound of Formula (Ia)] as the molecule, how does the “infarct volume after 5.5 h reperfusion vs vehicle” value (Sprague-Dawley rats; 0.1 mg/kg iv 15 min into 30-min MCAO (15 min prior to reperfusion)) read?
A: The value was “significant neuroprotection”.

Q: And the “infarct volume after 5.5 h reperfusion vs vehicle” value (Sprague-Dawley rats; 0.1 mg/kg iv 30 min following the start of reperfusion)?
A: Its value is “significant decreases in infarct volume”.

Q: And the “infarct volume following I/R vs vehicle” value (Sprague-Dawley rats; 0.1 mg/kg iv 30 min prior to MCAO, 30 min MCAO, 5.5 h reperfusion)?
A: Its value is “significant decrease in infarct volume”.

Q: What about the “mean infarct volume smaller than the vehicle group” value (Sprague-Dawley rats; 0.1 mg/kg iv 30 min prior to MCAO, end of 5.5 h of reperfusion) of the same molecule?
A: The value was about 53%.

Q: What about the “mean infarct volume vs vehicle, time course” value (Sprague-Dawley rats; 0.1 mg/kg iv 30 min prior to MCAO, measured at 4 h) of the same molecule?
A: The value was “significantly smaller”.

Q: What about the “mean infarct volume vs vehicle, time course” value (Sprague-Dawley rats; 0.1 mg/kg iv 30 min prior to MCAO, measured at 6 h) of the same molecule?
A: Its value is “significantly smaller”.

Q: And the “infarct volume after 5.5 h reperfusion vs vehicle” value (Sprague-Dawley rats; 0.1 mg/kg iv 60 min following the start of reperfusion)?
A: The value was “significant decreases in infarct volume”.

Q: And the “infarct volume after 5.5 h reperfusion vs vehicle” value (Sprague-Dawley rats; 0.1 mg/kg iv 90 min following the start of reperfusion)?
A: The value was “significant decreases in infarct volume”.

Q: And the “infarct volume after 5.5 h reperfusion vs vehicle” value (Sprague-Dawley rats; 0.1 mg/kg iv 120 min following suture removal)?
A: Its value is “did not result in a significant difference in infarct volume”.

Q: What about the “infarct volume after 5.5 h reperfusion vs vehicle” value (Sprague-Dawley rats; 0.1 mg/kg iv 180 min following suture removal) of the same molecule?
A: The value was “did not result in a significant difference in infarct volume”.

Q: What about the “infarct volume after 5.5 h reperfusion vs vehicle” value (Sprague-Dawley rats; 0.1 mg/kg iv at time 0 (start of reperfusion)) of the same molecule?
A: Its value is “significant decreases in infarct volume”.

Q: What about the “infarct volume following I/R vs vehicle” value (Sprague-Dawley rats; 0.5 mg/kg iv 30 min prior to MCAO, 30 min MCAO, 5.5 h reperfusion) of the same molecule?
A: Its value is “significant decrease in infarct volume”.

Q: And the “neuroprotection (infarct volume) following I/R” value (Sprague-Dawley rats; 0.01, 0.05, 0.1, 0.5 mg/kg iv 30 min prior to MCAO, 30 min MCAO, 5.5 h reperfusion)?
A: The value was “dose-dependent neuroprotection”.

Q: What about the stroke infarct volume (Sprague-Dawley rats; Example 3, 0.01-0.1 mg/kg injected 30 minutes before MCA occlusion, vs ethanol vehicle) of the same molecule?
A: Its stroke infarct volume is “dose-dependent reduction in stroke infarct volume”.

Q: What about the “dose required to produce significant neuroprotection” value (Sprague-Dawley rats; I/R model, iv) of the same molecule?
A: Its value is 0.1 mg/kg.

Q: What about the “infarct volume following I/R vs vehicle” value (Sprague-Dawley rats; direct intracortical preinjection 1.0 μM (200 nl) 10 min pre-MCAO) of the same molecule?
A: The value was “significant decrease in infarct volume”.

Q: And the “latest administration time giving significant neuroprotection, following the start of reperfusion” value (Sprague-Dawley rats; optimal dose (0.1 mg/kg iv))?
A: The value was “up to 90 min”.

Q: What about the “% Metabolism in 30 minutes” value ([1]; HLM control (without NADPH)) of the same molecule?
A: Its value is 0%.

Q: And the “CLintr (mL/min/g liver)” value ([1]; HLM control (without NADPH))?
A: Its value is over 67 mL/min/g liver.

Q: And the “% Metabolism in 30 minutes” value ([1]; HLM reaction (with NADPH))?
A: Its value is 0%.

Q: What about the “CLintr (mL/min/g liver)” value ([1]; HLM reaction (with NADPH)) of the same molecule?
A: The value was over 67 mL/min/g liver.
